For 31 compounds, IC50 results are on record in patent US12534452B2, “N-(1H-imidazol-2-yl)benzamide compound and pharmaceutical composition comprising the same as active ingredient” (KAINOS MEDICINE, INC., priority 2019, dated 2026).

In the assay the target is IRAK4 (Homo sapiens (Human), UniProt Q9NWZ3). Briefly: In vitro IRAK4 phosphorylation activity assay. In kind it is biochemical. The following applies: [γ-33P]-ATP, myelin basic protein substrate, 40 minutes at room temperature; categories. The method in brief: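 Radiometric filter-binding assay, no compound–kinase preincubation; 8 mM MOPS pH 7.0, 0.2 mM EDTA, 10 mM Mg acetate, 0.33 mg/mL myelin basic protein substrate, [γ-33P]-ATP. Reaction 40 min at room temperature, stopped with phosphoric acid, scintillation counting; IC50 reported in categories.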
IRAK4, sequence (Q9NWZ3 whole entry): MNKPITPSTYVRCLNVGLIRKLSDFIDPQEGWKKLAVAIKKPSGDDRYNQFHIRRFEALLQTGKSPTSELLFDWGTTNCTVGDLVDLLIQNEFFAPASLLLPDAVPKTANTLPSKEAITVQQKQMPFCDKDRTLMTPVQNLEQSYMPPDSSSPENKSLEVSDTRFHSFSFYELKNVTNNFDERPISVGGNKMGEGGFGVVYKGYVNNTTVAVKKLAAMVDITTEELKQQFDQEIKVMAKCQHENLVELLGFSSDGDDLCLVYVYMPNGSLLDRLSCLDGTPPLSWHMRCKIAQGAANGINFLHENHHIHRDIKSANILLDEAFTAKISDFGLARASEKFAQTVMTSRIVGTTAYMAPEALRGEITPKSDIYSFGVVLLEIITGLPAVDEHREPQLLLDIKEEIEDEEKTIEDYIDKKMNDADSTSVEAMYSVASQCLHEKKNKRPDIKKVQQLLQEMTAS

Structures are written as SMILES.

For orientation: IC50 means the concentration that inhibits the measured activity by half. `COC[C@@H]1CCCN1C(=O)CCCc1cn(-c2ccccc2)c(NC(=O)c2cccc(-c3cn[nH]c3)c2)n1` [Example 55, (S)—N-(4-(4-(2-(methoxymethyl)pyrrolidin-1-yl)-4-oxobutyl)-1-phenyl-1H-imidazol-2-yl)-3-(1H-pyrazol-4-yl)benzamide] gave an IC50 of under 50 nM. As for `Cn1ncc(-c2cccc(C(=O)Nc3nc(CCCC(=O)NC4CC4)cn3-c3ccccc3)c2)c1F` [Example 232, N-(4-(4-(cyclopropylamino)-4-oxobutyl)-1-phenyl-1H-imidazol-2-yl)-3-(5-fluoro-1-methyl-1H-pyrazol-4-yl)benzamide], the IC50 lay within 50 to 100 nM. The result for `CNC(=O)CCCc1cn(C2CCCCC2)c(NC(=O)c2cccc(-c3cn[nH]c3)c2)n1` [Example 296, N-(1-cyclohexyl-4-(4-(methylamino)-4-oxobutyl)-1H-imidazol-2-yl)-3-(1H-pyrazol-4-yl)benzamide] reads under 50 nM; that for `COC[C@H]1CCCN1NC(=O)Cc1cn(-c2ccccc2)c(NC(=O)c2cccc(-c3cn[nH]c3)c2)n1` [Example 45, (R)—N-(4-(2-((2-(methoxymethyl)pyrrolidin-1-yl)amino)-2-oxoethyl)-1-phenyl-1H-imidazol-2-yl)-3-(1H-pyrazol-4-yl)benzamide], 50 to 100 nM; that for `N[C@@H]1CCCN(C(=O)CCc2cn(-c3ccccc3)c(NC(=O)c3cccc(-c4cn[nH]c4)c3)n2)C1` [Example 40, (R)—N-(4-(3-(3-aminopiperidin-1-yl)-3-oxopropyl)-1-phenyl-1H-imidazol-2-yl)-3-(1H-pyrazol-4-yl)benzamide], under 50 nM. The result for `O=C(Nc1nc(CCCCCCN2CCCCC2)cn1-c1ccccc1)c1cccc(-c2ccccn2)c1` [Example 269, N-(1-phenyl-4-(6-(piperidin-1-yl)hexyl)-1H-imidazol-2-yl)-3-(pyridin-2-yl)benzamide] reads over 100 nM; that for `O=C(CCCc1cn(-c2ccccc2)c(NC(=O)c2cccc(-c3cn[nH]c3F)c2)n1)NC1CC1` [Example 229, N-(4-(4-(cyclopropylamino)-4-oxobutyl)-1-phenyl-1H-imidazol-2-yl)-3-(5-fluoro-1H-pyrazol-4-yl)benzamide], under 50 nM.

On to `CN1CCN(C(=O)CCCc2cn(-c3ccccc3)c(NC(=O)c3cccc(-c4ccc5scnc5c4)c3)n2)CC1` [Example 284, 3-(benzo[d]thiazol-5-yl)-N-(4-(4-(4-methylpiperazin-1-yl)-4-oxobutyl)-1-phenyl-1H-imidazol-2-yl)benzamide], for which the IC50 was over 100 nM. The result for `CN1CCN(CCCNC(=O)CCCc2cn(-c3ccccc3)c(NC(=O)c3cccc(-c4cnn(C)c4)c3)n2)CC1` [Example 186, 3-(1-methyl-1H-pyrazol-4-yl)-N-(4-(4-((3-(4-methylpiperazin-1-yl)propyl)amino)-4-oxobutyl)-1-phenyl-1H-imidazol-2-yl)benzamide] reads 50 to 100 nM; that for `COC[C@H]1CCCN1NC(=O)CCc1cn(-c2ccccc2)c(NC(=O)c2cccc(-c3cn[nH]c3)c2)n1` [Example 17, (R)—N-(4-(3-((2-(methoxymethyl)pyrrolidin-1-yl)amino)-3-oxopropyl)-1-phenyl-1H-imidazol-2-yl)-3-(1H-pyrazol-4-yl)benzamide], over 100 nM; that for `CC(C)OC(=O)CCCc1cn(-c2ccccc2)c(NC(=O)c2cccc(-c3cn[nH]c3)c2)n1` [Example 70, isopropyl 4-(2-(3-(1H-pyrazol-4-yl)benzamido)-1-phenyl-1H-imidazol-4-yl)butanoate], under 50 nM. For `C[C@@H]1CCC[C@H](C)N1C(=O)CCc1cn(-c2ccccc2)c(NC(=O)c2cccc(-c3cn[nH]c3)c2)n1` [Example 32, N-(4-(3-((2R,6S)-2,6-dimethylpiperidin-1-yl)-3-oxopropyl)-1-phenyl-1H-imidazol-2-yl)-3-(1H-pyrazol-4-yl)benzamide], the IC50 is under 50 nM. The value for `Cn1cc(-c2cccc(C(=O)Nc3nc(CCCCCCNC(=O)C4CC4)cn3-c3ccccc3)c2)cn1` [Example 228, N-(4-(6-(cyclopropanecarboxamido)hexyl)-1-phenyl-1H-imidazol-2-yl)-3-(1-methyl-1H-pyrazol-4-yl)benzamide] was under 50 nM; that for `O=C(Nc1nc(CCCCCC(=O)N2CCCCCC2)cn1-c1ccccc1)c1cccc(-c2ccc3scnc3c2)c1` [Example 289, N-(4-(6-(azepan-1-yl)-6-oxohexyl)-1-phenyl-1H-imidazol-2-yl)-3-(benzo[d]thiazol-5-yl)benzamide] was over 100 nM; that for `COC[C@@H]1CCCN1NC(=O)CCCCCc1cn(-c2ccccc2)c(NC(=O)c2cccc(-c3cn[nH]c3)c2)n1` [Example 98, (S)—N-(4-(6-((2-(methoxymethyl)pyrrolidin-1-yl)amino)-6-oxohexyl)-1-phenyl-1H-imidazol-2-yl)-3-(1H-pyrazol-4-yl)benzamide] was under 50 nM. The value for `O=C(Nc1nc(CCCCCCN2CCCCC2)cn1-c1ccccc1)c1cccc(-c2ccc3[nH]ncc3c2)c1` [Example 252, 3-(1H-indazol-5-yl)-N-(1-phenyl-4-(6-(piperidin-1-yl)hexyl)-1H-imidazol-2-yl)benzamide] was under 50 nM. In turn, `O=C(CCCc1cn(-c2ccccc2)c(NC(=O)c2cccc(-c3cccc4cn[nH]c34)c2)n1)NC1CC1` [Example 248, N-(4-(4-(cyclopropylamino)-4-oxobutyl)-1-phenyl-1H-imidazol-2-yl)-3-(1H-indazol-7-yl)benzamide] showed an IC50 of over 100 nM. The value for `C[C@H]1CCCCN1C(=O)CCc1cn(-c2ccccc2)c(NC(=O)c2cccc(-c3cn[nH]c3)c2)n1` [Example 31, (S)—N-(4-(3-(2-methylpiperidin-1-yl)-3-oxopropyl)-1-phenyl-1H-imidazol-2-yl)-3-(1H-pyrazol-4-yl)benzamide] was 50 to 100 nM. Consider `O=C(CCCc1cn(-c2ccccc2)c(NC(=O)c2cccc(-c3ccc4[nH]ncc4c3)c2)n1)NC1CC1` [Example 245, N-(4-(4-(cyclopropylamino)-4-oxobutyl)-1-phenyl-1H-imidazol-2-yl)-3-(1H-indazol-5-yl)benzamide], for which the IC50 is under 50 nM. The value for `Cn1cc(-c2cccc(C(=O)Nc3nc(CCCC(=O)N4CCC(C)(C)CC4)cn3-c3ccccc3)c2)cn1` [Example 167, N-(4-(4-(4,4-dimethylpiperidin-1-yl)-4-oxobutyl)-1-phenyl-1H-imidazol-2-yl)-3-(1-methyl-1H-pyrazol-4-yl)benzamide] was under 50 nM; that for `Cn1ncc2cc(-c3cccc(C(=O)Nc4nc(CCCCCC(=O)N5CCCCC5)cn4-c4ccccc4)c3)ccc21` [Example 251, 3-(1-methyl-1H-indazol-5-yl)-N-(4-(6-oxo-6-(piperidin-1-yl)hexyl)-1-phenyl-1H-imidazol-2-yl)benzamide] was over 100 nM. The result for `COC[C@@H]1CCCN1C(=O)Cc1cn(-c2ccccc2)c(NC(=O)c2cccc(-c3cn[nH]c3)c2)n1` [Example 46, (S)—N-(4-(2-(2-(methoxymethyl)pyrrolidin-1-yl)-2-oxoethyl)-1-phenyl-1H-imidazol-2-yl)-3-(1H-pyrazol-4-yl)benzamide] reads 50 to 100 nM; that for `O=C(CCc1cn(-c2cccc(Cl)c2)c(NC(=O)c2cccc(-c3cn[nH]c3)c2)n1)Nc1ccccc1` [Example 293, N-(1-(3-chlorophenyl)-4-(3-oxo-3-(phenylamino)propyl)-1H-imidazol-2-yl)-3-(1H-pyrazol-4-yl)benzamide], under 50 nM; that for `CN(C)c1ccc(NC(=O)CCCc2cn(-c3ccccc3)c(NC(=O)c3cccc(-c4cnn(C)c4)c3)n2)cc1` [Example 155, N-(4-(4-((4-(dimethylamino)phenyl)amino)-4-oxobutyl)-1-phenyl-1H-imidazol-2-yl)-3-(1-methyl-1H-pyrazol-4-yl)benzamide], under 50 nM. The result for `Cn1cc(-c2cccc(C(=O)Nc3nc(CCCC(=O)N4CCCC(F)(F)C4)cn3-c3ccccc3)c2)cn1` [Example 175, N-(4-(4-(3,3-difluoropiperidin-1-yl)-4-oxobutyl)-1-phenyl-1H-imidazol-2-yl)-3-(1-methyl-1H-pyrazol-4-yl)benzamide] reads under 50 nM; that for `O=C(Nc1nc(CCCCN2CCCCC2)cn1-c1ccccc1)c1cccc(-c2cccc3[nH]ncc23)c1` [Example 257, 3-(1H-indazol-4-yl)-N-(1-phenyl-4-(4-(piperidin-1-yl)butyl)-1H-imidazol-2-yl)benzamide], under 50 nM. In turn, `O=C(Nc1nc(CCCCCCN2CCCCC2=O)cn1-c1ccccc1)c1cccc(-c2ccc3[nH]ncc3c2)c1` [Example 260, 3-(1H-indazol-5-yl)-N-(4-(6-(2-oxopiperidin-1-yl)hexyl)-1-phenyl-1H-imidazol-2-yl)benzamide] had an IC50 of under 50 nM. The value for `Cn1cc(-c2cccc(C(=O)Nc3nc(CCCCCCN4CCCC4=O)cn3-c3ccccc3)c2)cn1` [Example 225, 3-(1-methyl-1H-pyrazol-4-yl)-N-(4-(6-(2-oxopyrrolidin-1-yl)hexyl)-1-phenyl-1H-imidazol-2-yl)benzamide] was under 50 nM; that for `O=C(CCc1cn(-c2ccccc2)c(NC(=O)c2cccc(-c3cn[nH]c3)c2)n1)NN1CCCCC1` [Example 8, N-(4-(3-oxo-3-(piperidin-1-ylamino)propyl)-1-phenyl-1H-imidazol-2-yl)-3-(1H-pyrazol-4-yl)benzamide] was 50 to 100 nM. The result for `CN1CCN(C(=O)CCCCCc2cn(-c3ccccc3)c(NC(=O)c3cccc(-c4ccc5[nH]ncc5c4)c3)n2)CC1` [Example 239, 3-(1H-indazol-5-yl)-N-(4-(6-(4-methylpiperazin-1-yl)-6-oxohexyl)-1-phenyl-1H-imidazol-2-yl)benzamide] reads under 50 nM. The result for `CN1CCN(C(=O)CCCc2cn(-c3ccccc3)c(NC(=O)c3cccc(-c4ccc5[nH]ncc5c4)c3)n2)CC1` [Example 247, 3-(1H-indazol-5-yl)-N-(4-(4-(4-methylpiperazin-1-yl)-4-oxobutyl)-1-phenyl-1H-imidazol-2-yl)benzamide] reads under 50 nM.
